Results: patent US12391737B2, “Soluble NPY2 receptor agonists” (Boehringer Ingelheim International GmbH, priority 2020, dated 2025)

Columns and labels:
Solubility determination = settings: for Sol6: pH 6; for Sol7: pH 7
Procedure: Peptides (as TFA salts) were weighed out in a filter unit (Mini-UniPrep Syringeless Filter 0.45 μm, Whatman), and 0.1 M sodium diphosphate buffer at pH 6.4 or 7.0 was added to achieve 10 mg/ml final concentration. The peptide was dissolved by shaking the filter unit horizontally at 600 rpm for 2 hours at room temperature. The sample was filtered, to remove any insoluble particles and diluted to 1 mg/ml in 50% acetonitrile. The control was prepared by weighing out the corresponding peptide and dissolving it in 50% acetonitrile to final concentration of 1 mg/ml. Both the control and sample were analysed with reversed phase chromatography. The area under the peak of the sample was compared to the control and the solubility was calculated based on that ratio.
The pH was measured and recorded for each sample.
System: UltiMate 3000 UPLC, ThermoFisher
Mobile phase A: 5% acetonitrile, 95% water, 0.03% trifluoracetic acid.
Mobile phase B: 95% acetonitrile, 5% water, 0.03% trifluoracetic acid.
Gradient: 0-100% mobile phase B (2 mins.)
Column temperature: 50° C.

[1] = target: T1, Human Neuropeptide Y2 Receptor (Homo sapiens, UniProt P49146); assay: Radioligand binding competition assay (RLB); settings: Table 3, 125I-PYY(1-36) competition; read-out: Ki
T1 construct: purchased CHEMICON HTS066M
T1 sequence (P49146 1-381): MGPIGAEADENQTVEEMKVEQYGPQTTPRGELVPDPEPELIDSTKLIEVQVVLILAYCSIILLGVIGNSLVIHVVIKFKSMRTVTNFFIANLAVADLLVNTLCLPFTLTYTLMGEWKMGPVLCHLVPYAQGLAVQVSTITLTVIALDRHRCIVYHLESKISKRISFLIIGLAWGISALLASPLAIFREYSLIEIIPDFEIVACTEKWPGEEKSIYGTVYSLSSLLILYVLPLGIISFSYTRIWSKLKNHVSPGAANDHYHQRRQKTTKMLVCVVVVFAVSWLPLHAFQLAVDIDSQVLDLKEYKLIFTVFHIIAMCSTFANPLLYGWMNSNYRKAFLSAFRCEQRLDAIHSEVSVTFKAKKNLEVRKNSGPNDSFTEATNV
Procedure: The filtration RLB assay was carried out in 96-well plates in a final volume of 100 μl per well. Freeze-dried test peptides were dissolved in 100% dimethyl sulfoxide (DMSO) to stock solutions of 1 mM and serial dilutions were performed in assay buffer (50 mM HEPES, 5 mM MgCl2, 1 mM CaCl2, pH 7.4) containing 0.2% ovalbumin. […] Next, 80 μL membranes (HTS066M, ChemiSCREEN™ Human Neuropeptide Y2 Receptor Membrane Preparation, CHEMICON) were added to each well to give a final protein concentration of 0.5 μg/well. The plates were sealed and incubated at room temperature for 2 hours in a plate shaker set at 400 rpm. The incubation was stopped by vacuum filtration onto 0.5% polyethylene amine (PE) presoaked GF/C filters using a 96-well FilterMate™ harvester (Perkin Elmer) followed by four washes with 300 μl/well ice-cold wash buffer (50 mM HEPES, 500 mM NaCl, pH7.4). Filter plates were then dried for 60 min at room temperature and the bottom of the plates was sealed with backing tape UniFilter-96. Finally, 50 μl/well scintillation counter cocktail (Microscint20, Packard) was added and the radioactivity was counted in the Packard TopCount NXT scintillation counter. IC50 values (the half maximal inhibitory concentration of the agonist) were calculated by nonlinear regression analysis of sigmoidal dose-response curves.

Sol6 (Solubility determination) [mg/mL] | Sol7 (Solubility determination) [mg/mL] | Ki [1] [nM] | SMILES
10.0 | 10.0 | 2.8 | CC(C)CC(=O)N[C@@H](C)C(=O)N1CCC[C@H]1C(=O)N[C@@H](CCC(=O)O)C(=O)N[C@@H](CCCCNC(=O)CCCCCNC(=O)CC[C@H](NC(=O)CCCCCCCCCCCCCCCCC(=O)O)C(=O)O)C(=O)N1CCC[C@H]1C(=O)N[C@@H](CCC(=O)O)C(=O)N[C@@H](CCC(=O)O)C(=O)N[C@@H](CC(=O)O)C(=O)N[C@@H](C)C(=O)N[C@H](C(=O)N1CCC[C@H]1C(=O)N[C@@H](CCC(=O)O)C(=O)N[C@@H](CCC(=O)O)C(=O)N[C@@H](CCC(N)=O)C(=O)N[C@@H](CCC(N)=O)C(=O)N[C@@H](CCCNC(=N)N)C(=O)N[C@@H](Cc1ccc(O)cc1)C(=O)N[C@@H](Cc1ccc(O)cc1)C(=O)N[C@H](C(=O)N[C@@H](CO)C(=O)N[C@@H](CC(C)C)C(=O)N[C@@H](CCCNC(=N)N)C(=O)N[C@@H](Cc1c[nH]cn1)C(=O)N[C@@H](Cc1ccc(O)cc1)C(=O)N[C@@H](Cc1ccc(O)cc1)C(=O)N[C@@H](CC(N)=O)C(=O)N[C@@H](Cc1c[nH]c2ccccc12)C(=O)N[C@@H](CC(C)C)C(=O)N[C@H](C(=O)N[C@@H](CCCNC(=N)N)C(=O)N[C@@H](CCC(N)=O)C(=O)N[C@@H](CCCNC(=N)N)C(=O)N[C@@H](Cc1ccc(O)cc1)C(N)=O)[C@@H](C)O)C(C)C)[C@@H](C)O [Compound 134, N{alpha-4}-(3-methylbutanoyl)-N{epsilon-7}-(6-[(4S)-4-carboxy-4-(17-carboxyheptadecanamido)butanamido]hexanoyl)-[4A,7K,9E,13T,17Q,18Q,22V,28Y,30W,31L]-hPYY(4-36)]
9.9 | 9.5 | 12.5 | CC(C)CC(=O)N[C@@H](C)C(=O)N1CCC[C@H]1C(=O)N[C@@H](CCC(=O)O)C(=O)N[C@@H](CCCCNC(=O)CCCCCNC(=O)CC[C@H](NC(=O)CCCCCCCCCCCCCCCCC(=O)O)C(=O)O)C(=O)N1CCC[C@H]1C(=O)N[C@@H](CCC(=O)O)C(=O)N[C@@H](CCC(=O)O)C(=O)N[C@@H](CC(=O)O)C(=O)N[C@@H](C)C(=O)N[C@@H](CCC(=O)O)C(=O)N1CCC[C@H]1C(=O)N[C@@H](CCC(=O)O)C(=O)N[C@@H](CCC(=O)O)C(=O)N[C@@H](CC(C)C)C(=O)N[C@@H](CCC(N)=O)C(=O)N[C@@H](CCC(=O)O)C(=O)N[C@@H](Cc1ccc(O)cc1)C(=O)N[C@@H](Cc1ccc(O)cc1)C(=O)N[C@H](C(=O)N[C@@H](CO)C(=O)N[C@@H](CC(C)C)C(=O)N[C@@H](CCCNC(=N)N)C(=O)N[C@@H](Cc1c[nH]cn1)C(=O)N[C@@H](Cc1ccc(O)cc1)C(=O)N[C@@H](Cc1ccc(O)cc1)C(=O)N[C@@H](CC(N)=O)C(=O)N[C@@H](Cc1c[nH]c2ccccc12)C(=O)N[C@@H](CC(C)C)C(=O)N[C@H](C(=O)N[C@@H](CCCNC(=N)N)C(=O)N[C@@H](CCC(N)=O)C(=O)N[C@@H](CCCNC(=N)N)C(=O)N[C@@H](Cc1ccc(O)cc1)C(N)=O)[C@@H](C)O)C(C)C [Compound 138, N{alpha-4}-(3-methylbutanoyl)-N{epsilon-7}-(6-[(4S)-4-carboxy-4-(17-carboxyheptadecanamido)butanamido]hexanoyl)-[4A,7K,9E,13E,18Q,19E,22V,28Y,30W,31L]-hPYY(4-36)]

Further lines, the compound ahead of its results:

SMILES | Sol6 (Solubility determination) [mg/mL] | Sol7 (Solubility determination) [mg/mL] | Ki [1] [nM]
CC(C)CC(=O)N[C@@H](C)C(=O)N1CCC[C@H]1C(=O)N[C@@H](CCC(=O)O)C(=O)N[C@@H](CCCCNC(=O)CCCCCNC(=O)CC[C@H](NC(=O)CCCCCCCCCCCCCCCCC(=O)O)C(=O)O)C(=O)N1CCC[C@H]1C(=O)N[C@@H](CCC(=O)O)C(=O)N[C@@H](CCC(=O)O)C(=O)N[C@@H](CC(=O)O)C(=O)N[C@@H](CO)C(=O)N[C@@H](CO)C(=O)N1CCC[C@H]1C(=O)N[C@@H](CCC(=O)O)C(=O)N[C@@H](CCC(=O)O)C(=O)N[C@@H](CC(C)C)C(=O)N[C@@H](CCC(N)=O)C(=O)N[C@@H](CCCNC(=N)N)C(=O)N[C@@H](Cc1ccc(O)cc1)C(=O)N[C@@H](Cc1ccc(O)cc1)C(=O)N[C@H](C(=O)N[C@@H](C)C(=O)N[C@@H](CC(C)C)C(=O)N[C@@H](CCCNC(=N)N)C(=O)N[C@@H](Cc1c[nH]cn1)C(=O)N[C@@H](Cc1ccc(O)cc1)C(=O)N[C@@H](Cc1ccc(O)cc1)C(=O)N[C@@H](CC(N)=O)C(=O)N[C@@H](Cc1c[nH]c2ccccc12)C(=O)N[C@@H](CC(C)C)C(=O)N[C@H](C(=O)N[C@@H](CCCNC(=N)N)C(=O)N[C@@H](CCC(N)=O)C(=O)N[C@@H](CCCNC(=N)N)C(=O)N[C@@H](Cc1ccc(O)cc1)C(N)=O)[C@@H](C)O)C(C)C [Compound 24, N{alpha-4}-(3-methylbutanoyl)-N{epsilon-7}-(6-[(4S)-4-carboxy-4-(17-carboxyheptadecanamido)butanamido]hexanoyl)[4A,7K,9E,12S,18Q,22V,23A,28Y,30W,31L]-hPYY(4-36)] | 9.8 | 10.0 | 3.39
CC[C@H](C)[C@H](NC(=O)[C@H](CCC(=O)O)NC(=O)[C@H](CCC(=O)O)NC(=O)[C@@H]1CCCN1C(=O)[C@H](CCC(=O)O)NC(=O)[C@H](C)NC(=O)[C@H](CC(=O)O)NC(=O)[C@H](CCC(=O)O)NC(=O)[C@H](CCC(=O)O)NC(=O)[C@@H]1CCCN1C(=O)[C@H](CCCCNC(=O)CCCCCNC(=O)CC[C@H](NC(=O)CCCCCCCCCCCCCCCCC(=O)O)C(=O)O)NC(=O)[C@H](CCC(=O)O)NC(=O)[C@@H]1CCCN1C(=O)[C@H](C)NC(=O)CC(C)C)C(=O)N[C@@H](CCC(N)=O)C(=O)N[C@@H](CCCNC(=N)N)C(=O)N[C@@H](Cc1ccc(O)cc1)C(=O)N[C@@H](Cc1ccc(O)cc1)C(=O)N[C@H](C(=O)N[C@@H](CO)C(=O)N[C@@H](CC(C)C)C(=O)N[C@@H](CCCNC(=N)N)C(=O)N[C@@H](Cc1c[nH]cn1)C(=O)N[C@@H](Cc1ccc(O)cc1)C(=O)N[C@@H](Cc1ccc(O)cc1)C(=O)N[C@@H](CC(N)=O)C(=O)N[C@@H](Cc1c[nH]c2ccccc12)C(=O)N[C@@H](CC(C)C)C(=O)N[C@H](C(=O)N[C@@H](CCCNC(=N)N)C(=O)N[C@@H](CCC(N)=O)C(=O)N[C@@H](CCCNC(=N)N)C(=O)N[C@@H](Cc1ccc(O)cc1)C(N)=O)[C@@H](C)O)C(C)C [Compound 112, N{alpha-4}-(3-methylbutanoyl)-N{epsilon-7}-(6-[(4S)-4-carboxy-4-(17-carboxyheptadecanamido)butanamido]hexanoyl)-[4A,7K,9E,13E,17I,18Q,22V,28Y,30W,31L]-hPYY(4-36)] | 9.9 | 10.0 | 4.28
CC[C@H](C)[C@H](NC(=O)[C@H](CCC(=O)O)NC(=O)[C@H](CCC(=O)O)NC(=O)[C@@H]1CCCN1C(=O)[C@H](CCC(=O)O)NC(=O)[C@H](C)NC(=O)[C@H](CC(=O)O)NC(=O)[C@H](C)NC(=O)[C@H](CCC(=O)O)NC(=O)[C@@H]1CCCN1C(=O)[C@H](CCCCNC(=O)CCCCCNC(=O)CC[C@H](NC(=O)CCCCCCCCCCCCCCCCC(=O)O)C(=O)O)NC(=O)[C@H](C)NC(=O)[C@@H]1CCCN1C(=O)[C@H](C)NC(=O)CC(C)C)C(=O)N[C@@H](CCC(N)=O)C(=O)N[C@@H](CCCNC(=N)N)C(=O)N[C@@H](Cc1ccc(O)cc1)C(=O)N[C@@H](Cc1ccc(O)cc1)C(=O)N[C@H](C(=O)N[C@@H](CO)C(=O)N[C@@H](CC(C)C)C(=O)N[C@@H](CCCNC(=N)N)C(=O)N[C@@H](Cc1c[nH]cn1)C(=O)N[C@@H](Cc1ccc(O)cc1)C(=O)N[C@@H](Cc1ccc(O)cc1)C(=O)N[C@@H](CC(N)=O)C(=O)N[C@@H](Cc1c[nH]c2ccccc12)C(=O)N[C@@H](CC(C)C)C(=O)N[C@H](C(=O)N[C@@H](CCCNC(=N)N)C(=O)N[C@@H](CCC(N)=O)C(=O)N[C@@H](CCCNC(=N)N)C(=O)N[C@@H](Cc1ccc(O)cc1)C(N)=O)[C@@H](C)O)C(C)C [Compound 198, N{alpha-4}-(3-methylbutanoyl)-N{epsilon-7}-(6-[(4S)-4-carboxy-4-(17-carboxyheptadecanamido)butanamido]hexanoyl)-[4A,6A,7K,9E,10A,13E,17I,18Q,22V,28Y,30W,31L]-hPYY(4-36)] | >10.0 | >10.0 | 1.38
